Assay: Solubility
Type: physicochemical

## O=C(CCSCCC(F)(F)C(F)(F)C(F)(F)C(F)(F)C(F)(F)C(F)(F)F)NC(CO)(CO)CO [monoadduct 14, N-[(trihydrozymethyl)methyl]4-thia-6-(n-perfluorohezyl) hexanamide]
Organic solvents such as AcOEt, CH3CN, CH3OH, CHCl3
  solubility in organic solvents (in words): soluble in organic solvents
water
  solubility in water (in words): insoluble in water
